# In patent publication US20230128114A1, “METHODS AND COMPOSITIONS FOR TREATING OR PREVENTING AN INFLAMMATORY CONDITION” (priority 2020, published 2023):
# How the values were obtained:
# [1] = system: LPS-induced pulmonary inflammation; assay: LPS-induced pulmonary inflammation: lung histopathology lesion score; assay type: in vivo, C57BL/B6 mice
# Protocol: (§1) Male C57BL/B6 mice weighing 10-20 g were used. Vehicle and active agents (i.e., CBD and hydroxychloroquine) alone or in combination were administered intraperitoneally (IP) at 1 hour before LPS (˜80 mg/kg) was administered intratracheally. 24 hours after LPS injection, mice were anaesthetized with pentoparbital and 0.5 mL of PBS was administered twice through a tracheal cannula after which approximately 0.6 mL of broncheoalveolar lavage fluid (BALF) was obtained. The BALF was assayed for IL-1β, TNF-α, MCP-1(MCAF) and CXCL-1 by Luminex. ANOVA followed by Dunnett's test was applied for comparison between vehicle and treatment groups. p<0.05 was considered significant.
# In a separate test group of animals with pulmonary inflammation induced as detailed above, lungs were harvested at termination (five lobes per lung) and fixed in 10% neutral buffered formalin for histopathology. Samples were sectioned at 4-6 μm and stained with hematoxylin and eosin (H&E) to examine inflammatory lesions as described by Shackleford et al. (2002, Toxicologic Pathology, 30(1): 93-96). Briefly, a score of 0 corresponds to not present, and a score of 5 indicates a severe/high number of lesions. Scores were averaged across lobes for each animal and then across animals for each treatment group.
# [2] = system: collagen-induced arthritis; assay: Collagen-induced arthritis; assay type: in vivo, Lewis rats; set-up: key to Clinical score Day 24, relative reduction / Pannus score, relative reduction / Total histology score, relative reduction: fractional reduction vs vehicle control, sham-baseline subtracted; details: for Clinical score Day 24, relative reduction / Pannus score, relative reduction / Paw volume Day 24, relative reduction / Total histology score, relative reduction / Relative reduction in serum cytokine levels: IL-1β / Relative reduction in serum cytokine levels: IL-6: CBD 1 mg/kg, HCQ 2.5 mg/kg, alone or combined; for Clinical score Day 24, relative reduction / Pannus score, relative reduction / Paw volume Day 24, relative reduction / Total histology score, relative reduction: observed
# Protocol: Female Lewis rats were challenged with porcine type-II collagen with Freund's adjuvant on Day 1 (0.2 mg/0.2 mL/rat) by subcutaneous injection at the base of the tail to induce arthritis. A booster injection at 0.1 mg/0.1 mL/rat) was administered on Day 7. On Day 16, rats were allocated into groups of six based on hind paw volume, with animals allocated into groups to provide a similar distribution of hind paw volumes.
# Vehicle and active agents (i.e., CBD and hydroxychloroquine) alone or in combination were administered intraperitoneally (IP) once a day starting from Day 17 to Day 30, i.e., for a total of 14 consecutive days.
# Disease was assessed by measuring hind paw volume with plethysmometer and using a qualitative severity score system as outlined in Table 32 on Day 1, 7, 10, 14, 16, 18, 20, 22, 24, 26, 28 and 30.
# Post-termination on Day 30, blood was collected from all rats and analysed for levels of the inflammatory cytokines IL-1β, IL-6 and TNF-α by ELISA. Both hind paws were harvested, weighed and formalin-fixed for histopathology. Tissue was assessed to evaluate cartilage and bone destruction by pannus formation and mononuclear cell infiltration in synovial tissues according to the scoring matrices set out in Tables 33 and 34. A total histology score, being the sum of the pannus formation and mononuclear cell infiltration score, was also calculated.
# For synergy analysis, data were baseline subtracted using sham treated […] (i.e., no collagen injection), before normalising the values relative to vehicle control. Synergy was calculated using the statistical methods described elsewhere herein.
# [3] = system: LPS-induced pulmonary inflammation; assay: LPS-induced pulmonary inflammation: BALF white blood cell count; assay type: in vivo, C57BL/B6 mice; details: CBD 10 mg/kg, HCQ 2.5 mg/kg, alone or combined
# Protocol: as §1
# BALF collected from mice were also analysed for white blood cell (WBC) count using an automatic haematology analyser. Cell counts were normalised using sham treated mice, and analysed relative to the highest values across the groups (Table 27).
# [4] = system: LPS-induced pulmonary inflammation; assay: LPS-induced pulmonary inflammation: BALF cytokines, synergy analysis; assay type: in vivo, C57BL/B6 mice; details: CBD 1 mg/kg, HCQ 25 mg/kg, alone or combined; observed
# LPS-induced sepsis = LPS-induced sepsis in mice, oral administration: serum 23-plex immune marker panel; assay type: in vivo, C57BL/6 mice
# Protocol: Male C57BL/6 mice weighing 10-20 g were used. Vehicle and active agents (i.e., CBD and hydroxychloroquine) alone or in combination were administered intraperitoneally (IP) (Table 4) or orally (Table 5) at 1 hour before LPS (100 μg/100 μL/mouse) injected intravenously (IV). At 2 hours after LPS injection, blood was collected from all mice by cardiac puncture, sera processed and assayed for biomarkers using either the Th17-plex for IL-1β, IL-2, IL-10, IL-12 (p70), IFN-γ and TNF-α by Luminex, plus IL-6 and D-dimer by ELISA, or the 23-plex for IL-1α, IL-1β, IL-2, IL-3, IL-4, IL-5, IL-6, IL-9, IL-10, IL-12(p40), IL-12(p70), IL-13, IL-17A, Eotaxin, G-CSF, GM-CSF, IFN-γ, KC, MCP-1(MCAF), MIP-1α, MIP-1β, RANTES, and TNF-α by Luminex, plus IL-6 by ELISA. ANOVA followed by Dunnett's test was applied for comparison between vehicle and treatment groups. p<0.05 is considered significant.
# [5] = CBD 10 mg/kg, HCQ 25 mg/kg, alone or combined, pulmonary lesion score
# [6] = HCQ 25 mg/kg alone vs CBD 1 mg/kg + HCQ 2.5 mg/kg
# [7] = HCQ 25 mg/kg alone vs CBD 1 mg/kg + HCQ 2.5 mg/kg, serum
# [8] = hydroxychloroquine 20 mg/kg PO alone
compound,measurement,setting,value
CCN(CCO)CCCC(C)Nc1ccnc2cc(Cl)ccc12 (stereo not drawn) [HCQ],Relative reduction in lesion score,[1]; [5],0.37
same,Relative reduction in lesion score,[1]; HCQ 2.5 mg/kg,0.21
same,"Clinical score Day 24, relative reduction",[2],0.18
same,"Pannus score, relative reduction",[2],0.07
same,"Paw volume Day 24, relative reduction",[2],0.04
same,"Total histology score, relative reduction",[2],0.15
same,Relative reduction in serum cytokine levels: IL-1β,[2]; serum,0.37
same,Relative reduction in serum cytokine levels: IL-6,[2]; serum,0.51
same,"Clinical score Day 24, reduction in disease severity",[2]; [6],0.21
same,"Clinical score Day 30, reduction in disease severity",[2]; [6],0.26
same,"Mononuclear cell infiltration, reduction in disease severity",[2]; [6],0.24
same,"Pannus score, reduction in disease severity",[2]; [6],0.28
same,"Paw volume Day 24, reduction in disease severity",[2]; [6],0.10
same,"Paw volume Day 30, reduction in disease severity",[2]; [6],0.20
same,"Total histology score, reduction in disease severity",[2]; [6],0.26
same,"IL-1B, reduction",[2]; [7],0.25
same,"IL-6, reduction",[2]; [7],0.36
same,Relative reduction in white blood cell counts: Neutrophil,[3],0.10
same,Relative reduction in white blood cell counts: WBC,[3],0.11
same,"IL-6, relative inhibition of cytokine release (BALF)",[4],0.08
same,Effect on biomarker levels,LPS-induced sepsis; hydroxychloroquine 2 mg/kg PO alone,little or no effect
same,LPS-induced IL-1α release vs vehicle group,LPS-induced sepsis; [8],moderate suppression
same,LPS-induced IL-1β release vs vehicle group,LPS-induced sepsis; [8],moderate suppression
same,LPS-induced IL-2 release vs vehicle group,LPS-induced sepsis; [8],moderate suppression
same,LPS-induced IL-4 release vs vehicle group,LPS-induced sepsis; [8],moderate suppression
same,LPS-induced IL-5 release vs vehicle group,LPS-induced sepsis; [8],moderate suppression
same,LPS-induced IL-9 release vs vehicle group,LPS-induced sepsis; [8],moderate suppression
"C=C(C)[C@@H]1CCC(C)=C[C@H]1c1c(O)cc(CCCCC)cc1O [CBD, cannabidiol]",Relative reduction in lesion score,[1]; CBD 1 mg/kg,0.18
same,Relative reduction in lesion score,[1]; [5],0.29
same,"Clinical score Day 24, relative reduction",[2],0.21
same,"Pannus score, relative reduction",[2],0.07
same,"Paw volume Day 24, relative reduction",[2],0.04
same,"Total histology score, relative reduction",[2],0.11
same,Relative reduction in serum cytokine levels: IL-1β,[2]; serum,0.31
same,Relative reduction in serum cytokine levels: IL-6,[2]; serum,0.50
same,Relative reduction in white blood cell counts: Neutrophil,[3],0.25
same,Relative reduction in white blood cell counts: WBC,[3],0.27
same,"IL-6, relative inhibition of cytokine release (BALF)",[4],0.15
same,Effect on biomarker levels,LPS-induced sepsis; CBD 1 mg/kg PO alone,little or no effect
same,LPS-induced IL-1α release vs vehicle group,LPS-induced sepsis; CBD 10 mg/kg PO alone,moderate suppression
same,LPS-induced IL-1β release vs vehicle group,LPS-induced sepsis; CBD 10 mg/kg PO alone,moderate suppression
same,LPS-induced IL-2 release vs vehicle group,LPS-induced sepsis; CBD 10 mg/kg PO alone,moderate suppression
same,LPS-induced IL-4 release vs vehicle group,LPS-induced sepsis; CBD 10 mg/kg PO alone,moderate suppression
same,LPS-induced IL-5 release vs vehicle group,LPS-induced sepsis; CBD 10 mg/kg PO alone,moderate suppression
same,LPS-induced IL-9 release vs vehicle group,LPS-induced sepsis; CBD 10 mg/kg PO alone,moderate suppression
